Holding throughout (assay type): functional
Test [1] concerns Mus musculus. In words: Antidepressant activity in Swiss albino mouse assessed as mean immobility time measured during 6 mins period at 20 mg/kg, po administered 30 mins before test by tail suspension test (reference value: 185.7 +/- 5.33 secs).
Test [2] concerns Mus musculus. Put plainly: Antidepressant activity in Swiss albino mouse assessed as mean immobility time measured during last 4 mins of single 6 mins test session at 20 mg/kg, po by forced swim test (reference value: 75.33 +/- 3.35 secs).
The nature of test [3]: Antioxidant activity assessed as superoxide scavenging activity using xanthine-xanthine oxidase system by NBT dye reduction based assay.
Test [4] relates to Radical scavenging activity. Put plainly: Antioxidant activity assessed as DPPH free radical scavenging activity by spectrophotometry. (In general: Loss of DPPH colour is used to gauge radical scavenging.)
Test [5] concerns Aspergillus flavus. In words: Antimicrobial activity against Aspergillus flavus NCIM 524 by broth dilution method. A general note: Dilution methods test growth across graded concentrations, often in twofold steps.
Test [6] deals with Aspergillus flavus. Put plainly: Antimicrobial activity against Aspergillus flavus NCIM 524 at 100 ug/mL incubated for 48 hrs by agar disc diffusion method. As to conditions: NCIM 524, 48 h, read-out: IZ. (In general: In agar diffusion tests the substance spreads into inoculated agar from a disc or well.)
For test [7], the system named is Candida albicans. Put plainly: Antimicrobial activity against Candida albicans NCIM 3471 by broth dilution method.
Test [8] concerns Candida albicans. Put plainly: Antimicrobial activity against Candida albicans NCIM 3471 at 100 ug/mL incubated for 48 hrs by agar disc diffusion method. The settings on record: NCIM 3471, 48 h, read-out: IZ.
For test [9], the system named is Pseudomonas aeruginosa. In words: Antimicrobial activity against Pseudomonas aeruginosa NCIM 5029 by broth dilution method.
In test [10] the test system is Pseudomonas aeruginosa. Put plainly: Antimicrobial activity against Pseudomonas aeruginosa NCIM 5029 at 100 ug/mL incubated for 24 hrs by agar disc diffusion method. The settings on record: NCIM 5029, 24 h, read-out: IZ.
Test [11] has as its system Escherichia coli. Put plainly: Antimicrobial activity against Escherichia coli NCIM 2574 by broth dilution method.
The subject of test [12] is Escherichia coli. Put plainly: Antimicrobial activity against Escherichia coli NCIM 2574 at 100 ug/mL incubated for 24 hrs by agar disc diffusion method. The settings on record: NCIM 2574, 24 h, read-out: IZ.
The test system of test [13] is Bacillus subtilis. Put plainly: Antimicrobial activity against Bacillus subtilis NCIM 2999 by broth dilution method.
Test [14] relates to Staphylococcus aureus. Put plainly: Antimicrobial activity against Staphylococcus aureus NCIM 5021 by broth dilution method.
For test [15], the system named is Staphylococcus aureus. In words: Antimicrobial activity against Staphylococcus aureus NCIM 5021 at 100 ug/mL incubated for 24 hrs by agar disc diffusion method. As to conditions: NCIM 5021, 24 h, read-out: IZ.
For test [16], the system named is Bacillus subtilis. Put plainly: Antimicrobial activity against Bacillus subtilis NCIM 2999 at 100 ug/mL incubated for 24 hrs by agar disc diffusion method. As to conditions: NCIM 2999, 24 h, read-out: IZ.

Structures are written as SMILES. Converted amounts (≈) assume the structure as drawn.

Take `COc1cc(/C=C/C(=O)N2CCN(c3ccccc3)CC2)cc2c1OCO2`: the figures for the Time with Mus musculus [1] and in the test with Mus musculus [2] were 143.5 s and 66.2 s, respectively. For the same compound, the 50% inhibitory concentration (IC50) in test [3] was 55.3 µg/mL (≈ 151 µM); in test [4], 36.9 µg/mL (≈ 101 µM). The minimum inhibitory concentration (MIC) is 40 µg/mL (≈ 109 µM) against Aspergillus flavus [5]; 25 µg/mL (≈ 68.2 µM) in the test on Candida albicans [7]; 25 µg/mL (≈ 68.2 µM) against Pseudomonas aeruginosa [9]; 25 µg/mL (≈ 68.2 µM) in the test with Escherichia coli [11]; 18 µg/mL (≈ 49.1 µM) in the test on Bacillus subtilis [13]; 18.3 µg/mL (≈ 49.9 µM) with Staphylococcus aureus [14]. The zone of inhibition at 100 µg/mL was determined as 11 mm in the test on Aspergillus flavus [6]; 13.7 mm with Candida albicans [8]; 13 mm in the test with Pseudomonas aeruginosa [10]; 10 mm with Escherichia coli [12]; 12 mm with Staphylococcus aureus [15]; 14 mm with Bacillus subtilis [16].

Take `COc1ccccc1N1CCN(C(=O)/C=C/c2cc(OC)c3c(c2)OCO3)CC1`: the Time with Mus musculus [1] is on record as 124.2 s; in the test on Mus musculus [2] it was 59.16 s. In addition, the half-inhibitory concentration (IC50) was 19.4 µg/mL (≈ 48.9 µM) in test [3] and 14.7 µg/mL (≈ 37.1 µM) in [4]. Also, the MIC was determined as 23 µg/mL (≈ 58 µM) in the test with Aspergillus flavus [5]; 17 µg/mL (≈ 42.9 µM) in the test with Candida albicans [7]; 20 µg/mL (≈ 50.4 µM) against Pseudomonas aeruginosa [9]; 20 µg/mL (≈ 50.4 µM) in the test with Escherichia coli [11]; 15 µg/mL (≈ 37.8 µM) with Bacillus subtilis [13]; 16.4 µg/mL (≈ 41.4 µM) in the test with Staphylococcus aureus [14]. Moreover, the zone of inhibition at 100 µg/mL worked out at 13.6 mm with Aspergillus flavus [6]; 14.1 mm in the test with Candida albicans [8]; 11 mm in the test with Pseudomonas aeruginosa [10]; 9 mm in the test with Escherichia coli [12]; 14 mm in the test on Staphylococcus aureus [15]; 16 mm in the test with Bacillus subtilis [16].

On to `O=C1O[C@H]([C@@H](O)CO)C(O)=C1O` [ASCORBIC ACID], for which the half-maximal inhibitory concentration (IC50) in test [4] was 12.6 µg/mL (≈ 71.5 µM).

In the case of `CN(C)CCCN1c2ccccc2CCc2ccccc21` [IMIPRAMINE], the Time with Mus musculus [1] was 79.5 s; in the test with Mus musculus [2], 32.17 s.

Take `COc1cc(/C=C/C(=O)N2CCN(C(C)=O)CC2)cc2c1OCO2`: the Time in the test with Mus musculus [1] was 116.2 s; with Mus musculus [2] it was 55.83 s. The IC50 in test [3] is 21.9 µg/mL (≈ 65.9 µM); in test [4] it was 23.2 µg/mL (≈ 69.8 µM). Further, the MIC was 22 µg/mL (≈ 66.2 µM) in the test with Aspergillus flavus [5]; 15 µg/mL (≈ 45.1 µM) against Candida albicans [7]; 18.7 µg/mL (≈ 56.3 µM) against Pseudomonas aeruginosa [9]; 18 µg/mL (≈ 54.2 µM) against Escherichia coli [11]; 14 µg/mL (≈ 42.1 µM) in the test on Bacillus subtilis [13]; 14 µg/mL (≈ 42.1 µM) in the test on Staphylococcus aureus [14]. Further, the zone of inhibition at 100 µg/mL is 10.4 mm with Aspergillus flavus [6]; 11 mm in the test on Candida albicans [8]; 14 mm in the test with Pseudomonas aeruginosa [10]; 12 mm with Escherichia coli [12]; 11 mm in the test with Staphylococcus aureus [15]; 16 mm in the test on Bacillus subtilis [16].

`COc1cc(/C=C/C(=O)N2CCC(C)CC2)cc2c1OCO2`: the values for the Time in the test on Mus musculus [1] and in the test with Mus musculus [2] were 104.9 s and 51.6 s, respectively. The values for the IC50 in [3] and in [4] were 19.8 µg/mL (≈ 65.3 µM) and 15.3 µg/mL (≈ 50.4 µM), respectively. Moreover, the minimum inhibitory concentration (MIC) in the test on Aspergillus flavus [5] was found to be 30 µg/mL (≈ 98.9 µM); against Candida albicans [7], 30 µg/mL (≈ 98.9 µM); with Pseudomonas aeruginosa [9], 36 µg/mL (≈ 119 µM); in the test on Escherichia coli [11], 40 µg/mL (≈ 132 µM); in the test on Bacillus subtilis [13], 25 µg/mL (≈ 82.4 µM); with Staphylococcus aureus [14], 24 µg/mL (≈ 79.1 µM). For the same compound, the zone of inhibition at 100 µg/mL with Aspergillus flavus [6] amounted to 12 mm; in the test on Candida albicans [8], 10 mm; with Pseudomonas aeruginosa [10], 9 mm; in the test on Escherichia coli [12] it was 10 mm; in the test on Staphylococcus aureus [15], 12 mm; with Bacillus subtilis [16], 10 mm.

For orientation: IC50 means the concentration that gives 50% inhibition. Broadly, the MIC is the smallest concentration in the dilution series that meets the test's criterion for growth inhibition. Read a high MIC as a need for much substance.

Values taken from ChEMBL document CHEMBL2203030, “Synthesis, characterization, antidepressant and antioxidant activity of novel piperamides bearing piperidine and piperazine analogues” (Bioorg Med Chem Lett, 2012).
